The text below walks through data of patent US8084399B2, “Process for screening of a binding amphiphilic peptides specific for hairpin RNA” (priority 2009, dated 2011).

For data set [1], the target named is RRE hairpin RNA. Put plainly: Fluorescence anisotropy competition with Rev-N-rhodamine probe, binding to RRE hairpin RNA. Also on record: species or system HIV. The settings on record: 20° C., pH 7.4, read-out: Dissociation constant, RRE. The procedure:
(§1) Binding force to each target hairpin RNA (IRES, RRE, TAR and 16S A-site) was measured by fluorescence polarization using alanine scanned peptide library (1b-1h).
(§2) Particularly, […] of each target RNA was prepared at the concentration of 10 mM, which stood at 65° C. for 10 minutes and then cooled down slowly at room temperature, leading to folding. The amphiphilic peptide was prepared respectively at the concentration of […], which were maintained at 0° C. As a probe, rev peptide labeled with rhodamine (Rev-N-rhodamine) emitting […] fluorescence was prepared at the concentration of 10 mM. Buffer was composed of 140 mM NaCl, 5 mM KCl, 1 mM MgCl2, and 20 mM HEPES (N-2-Hydroxyethylpiperazine-N′-2-Ethanesulfonic Acid, pH 7.4). Fluorescence Anisotropy was measured using AMINCO-Bowman Series Luminescence Spectrometer at 20° C. Ten nM of the probe was added in […] of buffer, to which target RNA was added to induce interaction between the probe and the target RNA. At that time, anisotropy value increased. Then, the synthesized peptide competing with the probe for binding site was added thereto with increasing the concentration slowly. Changes of fluorescence polarization were measured until fluorescence polarization reached as low as the beginning. Considering the concentration and amount of the peptide added, binding force to target RNA was calculated. That is, the binding strength between target RNA and peptide was determined according to the following KaleidaGraph. [Peptide]=Kd(Amax−A)/[Kd(A−A0)+1]×[RNA]−Kd(A−A0)^2[Probe]0/(Amax−A)(Amax−A0)
(§3) Herein, [Peptide] indicates the concentration of peptide, [RNA] indicates the concentration of target RNA, and [Probe]0 indicates the concentration of probe. A is the value of fluorescence anisotropy of sample, Amax is the value of totally bound tracer, and A0 is the value of totally free tracer.
(In fluorescence polarisation assays a small probe gives low polarisation when free and higher when bound to something large.)

The subject of data set [2] is IRES domain IV hairpin. The experiment in a line: Fluorescence anisotropy competition with Rev-N-rhodamine probe, binding to IRES hairpin. Also on record: species or system HCV. The settings on record: for differentiation coefficient (IRES): (mean Kd to other hairpin RNA)/(Kd to one hairpin RNA); for Kd: fluorescence anisotropy, 20° C., pH 7.4, read-out: Dissociation constant, IRES. The method, then: as §1, §2, §3

Data set [3] has as its target TAR hairpin RNA. Put plainly: Fluorescence anisotropy competition with Rev-N-rhodamine probe, binding to TAR hairpin RNA. The settings on record: fluorescence anisotropy, 20° C., pH 7.4; read-out: Dissociation constant, TAR. Also on record: species or system HIV. The method, then: as §1, §2, §3
Data set [4] concerns the target 16S ribosomal RNA A-site. The experiment in a line: Fluorescence anisotropy competition with Rev-N-rhodamine probe, binding to 16S A-site. The settings on record: 20° C., pH 7.4, read-out: Dissociation constant, 16S A-site. The method, then: as §1, §2, §3
Data set [5] can be described thus: Circular dichroism (CD), percentage of alpha-helix. The note with it: CD at 20° C., condition not given; for Alpha-helical rate (%), second value of pair: value after the slash; for Alpha-helical rate (%), first value of pair: value before the slash. The class given is physicochemical. The method, then: To investigate alpha-helix of the amphiphilic peptide (1a-1h), circular dichroism (CD) was performed. Particularly, CD was measured at 20° C. by using JASCO model J715 spectropolarimeter. Scanning was performed at 190-250 nm three times (bandwidth: 1 nm, datapitch: 0.5 nm, speed: 100 nm/min), which were averaged to obtain CD data. Spectrum was corrected by measuring background spectrum. CD signal was recorded after modulating thereof with mean residue ellipticity [Q]. Percentage (%) of alpha-helix(fn) was calculated by the following formula. [Q]=Qobs[MRW/(10lc)]
MRW=mean residue weight (dividing molecular weight by the number of peptide bond, l=pathway length (cm), c=concentration (mg/mL). fn=([Q]222−[Q]coil)/([Q]helix−[Q]coil) [Q]helix=−40,000[…]+100t [Q]coil=640−45t
[Q]222=mean residue ellipticity at 222 nm (deg cm2 mol-1), [Q]helix=ellipticity of peptide having complete helical structure, [Q]coil=ellipticity of peptide having complete random coil structure, n=number of amino acid, t=° C.

“And” between values parts separate entries of the source, which are not always exact repeats. Equal entries are not always repeated. Where no end group is shown, it is not given here. [ ]: non-standard residue; d: D form. Orn = NCCC[C@H](N)C(=O)O; Dab = NCC[C@H](N)C(=O)O; Dap = NC[C@H](N)C(=O)O

Regarding “LKKLLKLLKKLLALKG [1g, alanine scanned first generation peptide]”, the Kd turned out to be 90 nM in data set [1], 210 nM in data set [2], 39 nM in data set [3] and 200 nM in data set [4]. In addition, the “differentiation coefficient (IRES)” value in data set [2] turned out to be 0.47. Besides, the “binding strength to IRES, in words” value in data set [2] (compared with the original peptide) is given as “reduced binding strength”. In addition, the “Alpha-helical rate (%), second value of pair” value in data set [5] is 44%. Further, the “Alpha-helical rate (%), first value of pair” value in data set [5] came out at 8%.

Consider “LKKLLKLLKKLLDabLAG (LKKLLKLLKKLL[Dab]LAG-NH2; N-terminus assumed; SMILES CC(C)C[C@H](NC(=O)[C@H](CCN)NC(=O)[C@H](CC(C)C)NC(=O)[C@H](CC(C)C)NC(=O)[C@H](CCCCN)NC(=O)[C@H](CCCCN)NC(=O)[C@H](CC(C)C)NC(=O)[C@H](CC(C)C)NC(=O)[C@H](CCCCN)NC(=O)[C@H](CC(C)C)NC(=O)[C@H](CC(C)C)NC(=O)[C@H](CCCCN)NC(=O)[C@H](CCCCN)NC(=O)[C@@H](N)CC(C)C)C(=O)N[C@@H](C)C(=O)NCC(N)=O) [2h, second generation peptide, hydrophilic face modified]”, for which the Kd in data set [1] is 14 nM; in data set [2], 8.7 nM; in data set [3], 12 nM; in data set [4] it was 25 nM. In data set [2], the “differentiation coefficient (IRES)” value is 2.0. For the same substance, the “Alpha-helical rate (%), second value of pair” value in data set [5] came to 34%. Besides, the “Alpha-helical rate (%), first value of pair” value in data set [5] is given as 24%.

“LKKLLKLLKKLLDapLAG (LKKLLKLLKKLL[Dap]LAG-NH2; N-terminus assumed; SMILES CC(C)C[C@H](NC(=O)[C@H](CN)NC(=O)[C@H](CC(C)C)NC(=O)[C@H](CC(C)C)NC(=O)[C@H](CCCCN)NC(=O)[C@H](CCCCN)NC(=O)[C@H](CC(C)C)NC(=O)[C@H](CC(C)C)NC(=O)[C@H](CCCCN)NC(=O)[C@H](CC(C)C)NC(=O)[C@H](CC(C)C)NC(=O)[C@H](CCCCN)NC(=O)[C@H](CCCCN)NC(=O)[C@@H](N)CC(C)C)C(=O)N[C@@H](C)C(=O)NCC(N)=O) [2i, second generation peptide, hydrophilic face modified]”: the Kd in data set [1] is 23 nM; in data set [2], 1.4 nM; in data set [3], 8.4 nM; in data set [4], 20 nM. Besides, the “differentiation coefficient (IRES)” value in data set [2] is 12. The “Alpha-helical rate (%), second value of pair” value in data set [5] amounted to 54%. Besides, the “Alpha-helical rate (%), first value of pair” value in data set [5] was 39%.

“LKKLLKLLKKLLDapWAG (LKKLLKLLKKLL[Dap]WAG-NH2; N-terminus assumed; SMILES CC(C)C[C@H](NC(=O)[C@H](CC(C)C)NC(=O)[C@H](CCCCN)NC(=O)[C@H](CCCCN)NC(=O)[C@H](CC(C)C)NC(=O)[C@H](CC(C)C)NC(=O)[C@H](CCCCN)NC(=O)[C@H](CC(C)C)NC(=O)[C@H](CC(C)C)NC(=O)[C@H](CCCCN)NC(=O)[C@H](CCCCN)NC(=O)[C@@H](N)CC(C)C)C(=O)N[C@@H](CN)C(=O)N[C@@H](Cc1c[nH]c2ccccc12)C(=O)N[C@@H](C)C(=O)NCC(N)=O) [3g, third generation peptide, both faces modified]”: the Kd in data set [1] came to 11 nM; in data set [2] it was 1.2 nM; in data set [3] it was 5.9 nM; in data set [4], 17 nM. For the same substance, in data set [2], the “differentiation coefficient (IRES)” value turned out to be 9.4. In addition, in data set [5], the “Alpha-helical rate (%), second value of pair” value worked out at 63%. The “Alpha-helical rate (%), first value of pair” value in data set [5] worked out at 41%.

Regarding “LKKLLKLLKKLLKLAG [1h, alanine scanned first generation peptide]”, the Kd in data set [1] worked out at 25 nM; in data set [2], 49 nM; in data set [3], 63 nM; in data set [4], 53 nM. The “differentiation coefficient (IRES)” value in data set [2] turned out to be 0.96. For the same substance, the “Alpha-helical rate (%), second value of pair” value in data set [5] was 43%. Besides, the “Alpha-helical rate (%), first value of pair” value in data set [5] is recorded as 9%.

Turning to “LKKLLKLLKKLLKLKG [1a, original amphiphilic 16-mer peptide]”, the Kd in data set [1] came to 22 nM; in data set [2] it was 45 nM; in data set [3], 66 nM; in data set [4] it was 100 nM. In addition, the “differentiation coefficient (IRES)” value in data set [2] is given as 1.4. In addition, the “Alpha-helical rate (%), second value of pair” value in data set [5] amounted to 57%. Further, in data set [5], the “Alpha-helical rate (%), first value of pair” value worked out at 26%.

In the case of “LKKLLKLLKKLLOrnLAG (LKKLLKLLKKLL[Orn]LAG-NH2; N-terminus assumed; SMILES CC(C)C[C@H](NC(=O)[C@H](CCCN)NC(=O)[C@H](CC(C)C)NC(=O)[C@H](CC(C)C)NC(=O)[C@H](CCCCN)NC(=O)[C@H](CCCCN)NC(=O)[C@H](CC(C)C)NC(=O)[C@H](CC(C)C)NC(=O)[C@H](CCCCN)NC(=O)[C@H](CC(C)C)NC(=O)[C@H](CC(C)C)NC(=O)[C@H](CCCCN)NC(=O)[C@H](CCCCN)NC(=O)[C@@H](N)CC(C)C)C(=O)N[C@@H](C)C(=O)NCC(N)=O) [2g, second generation peptide, hydrophilic face modified]”, the Kd in data set [1] turned out to be 11 nM; in data set [2] it was 4.4 nM; in data set [3], 9 nM; in data set [4], 23 nM. Besides, in data set [2], the “differentiation coefficient (IRES)” value was 3.3. In data set [5], the “Alpha-helical rate (%), second value of pair” value stood at 53%. In data set [5], the “Alpha-helical rate (%), first value of pair” value is reported as 36%.

As to “LKKLLKLLKKLWKLAG [2t, tryptophan scanned second generation peptide]”, the Kd in data set [1] was found to be 13 nM; in data set [2], 2.3 nM; in data set [3], 10 nM; in data set [4], 17 nM. Moreover, in data set [2], the “differentiation coefficient (IRES)” value is 5.9. In data set [5], the “Alpha-helical rate (%), second value of pair” value turned out to be 58%. In data set [5], the “Alpha-helical rate (%), first value of pair” value came out at 12%.

For the substance “LKKLLKLLKKWLKLAG [2s, tryptophan scanned second generation peptide]”, the Kd in data set [1] stood at 9.5 nM; in data set [2], 4.4 nM; in data set [3], 43 nM; in data set [4], 24 nM. In addition, in data set [2], the “differentiation coefficient (IRES)” value is reported as 5.8. Moreover, the “Alpha-helical rate (%), second value of pair” value in data set [5] is on record as 60%. Also, the “Alpha-helical rate (%), first value of pair” value in data set [5] was found to be 27%.

As for “LKKLLKLLOrnKLLDapLAG (LKKLLKLL[Orn]KLL[Dap]LAG-NH2; N-terminus assumed; SMILES CC(C)C[C@H](NC(=O)[C@H](CN)NC(=O)[C@H](CC(C)C)NC(=O)[C@H](CC(C)C)NC(=O)[C@H](CCCCN)NC(=O)[C@H](CCCN)NC(=O)[C@H](CC(C)C)NC(=O)[C@H](CC(C)C)NC(=O)[C@H](CCCCN)NC(=O)[C@H](CC(C)C)NC(=O)[C@H](CC(C)C)NC(=O)[C@H](CCCCN)NC(=O)[C@H](CCCCN)NC(=O)[C@@H](N)CC(C)C)C(=O)N[C@@H](C)C(=O)NCC(N)=O) [peptide 2k, second generation peptide, hydrophilic face modified]”, the Kd in data set [1] is 20 nM; in data set [2], 0.68 nM; in data set [3] it was 13 nM; in data set [4] it was 17 nM. The “differentiation coefficient (IRES)” value in data set [2] is 24 and 25. Besides, the “Alpha-helical rate (%), second value of pair” value in data set [5] amounted to 61%. The “Alpha-helical rate (%), first value of pair” value in data set [5] is 48%.
